Laboratory results from PMC10376691, “Inhibition of Acetylcholinesterase and Amyloid-β Aggregation by Piceatannol and Analogs: Assessing In Vitro and In Vivo Impact on a Murine Model of Scopolamine-Induced Memory Impairment” (Antioxidants, 2023).
Entries after “also recorded” stand apart in the source; their conditions may differ.

Tests used:
[1] = system: scopolamine-induced amnesiac ICR mice; conditions: pre-treatment 40 mg/kg; cited from earlier work
[2] = system: scopolamine-induced mice with cognitive impairment; conditions: one-month pre-treatment via cannula into the third ventricle, total 65 ng/month/head; cited from earlier work
[3] = cited from earlier work
[4] = system: SH-SY5Y cells; experiment: Neurite outgrowth and cell viability, two-color fluorescence assay kit; type: cell-based; conditions: 10 μM
Experimental: (§1) The SH-SY5Y cells were grown in DMEM/F-12 medium supplemented with 10% FBS at 37 °C under a humidified atmosphere and 5% CO2 [41]. […] The MTT was used to evaluate cell viability, and the absorbance at 570 nm was determined. The DMSO used instead of the sample solution was blank (recognized as 100%), and each treatment was expressed as relative cell viability (%). To study the stimulation of neurite outgrowth, the SH-SY5Y cells (5000 cells/well) were seeded on a 96-well plate pre-coated with poly-L-lysine and then cultured in the DMEM/F-12 medium containing 10% FBS overnight at 37 °C under a humidified atmosphere and 5% CO2. After being removed from the culture medium, each PIC, GNT, RHA, and isoRHA (at a final concentration of 10 μM in the 0.1%DMSO) or 0.1% DMSO (the control) was added to the DMEM/F-12 medium containing 10% FBS and refreshed every three days. On day 3 and day 6, each of the culture plates was photographed using an inverted microscope (ECLIPSE TS100, Nikon Instruments Inc., Tokyo, Japan). The culture medium was removed and washed with PBS, and the cultured cells in each well were fixed with 4% paraformaldehyde. To measure cell viability and quantify the neurite outgrowths of the treated SH-SY5Y in a 96-well plate, the neurite outgrowth staining kit (a two-color fluorescence assay kit) was used, following a previous report or the protocol in the manufacturer’s manual (publication number: MAN0007224), which included a cell membrane-stained fluorescent dye (orange-red fluorescence), a cell viability indicator (green fluorescence), and a reagent for background masking. […] The value for the control was recognized as 100%, and each treatment was expressed relative to the control.

[5] = as above; type: cell-based; conditions: human, SH-SY5Y neuroblastoma cells, 3-day or 6-day treatment, green fluorescence, read-out: cell viability relative to the control
Experimental: as §1

[6] = system: SH-SY5Y cells; experiment: Neuroprotection against Aβ peptide (25–35)-induced cell deaths (MTT); type: cell-based, human; conditions: pre-treatment 1, 2 and 10 μM for 24 h, then 40 μg/mL Aβ (25–35) 24 h; vs control p < 0.05
Experimental: The human SH-SY5Y neuroblastoma cell lines (CRL-2266, Lot No. 58979771) were purchased from American Type Culture Collection (Manassas, VA, USA) and used as models to investigate PIC and its analogs for neuroprotective activities against Aβ-induced cell deaths and the stimulation of neurite outgrowths. The SH-SY5Y cells were grown in DMEM/F-12 medium supplemented with 10% FBS at 37 °C under a humidified atmosphere and 5% CO2 [41]. […]. The SH-SY5Y cells (10,000 cells/well) were seeded and cultured in a DMEM/F-12 medium containing 10% FBS for 24 h at 37 °C under a humidified atmosphere and 5% CO2. […] The medium was then removed, and 40 μg/mL Aβ peptide (25–35) (dissolved in PBS) or an equal aliquot of PBS was added to the medium for another 24 h culture. The MTT was used to evaluate cell viability, and the absorbance at 570 nm was determined. The DMSO used instead of the sample solution was blank (recognized as 100%), and each treatment was expressed as relative cell viability (%). To study the stimulation of neurite outgrowth, the SH-SY5Y cells (5000 cells/well) were seeded on a 96-well plate pre-coated with poly-L-lysine and then cultured in the DMEM/F-12 medium containing 10% FBS overnight at 37 °C under a humidified atmosphere and 5% CO2. After being removed from the culture medium, each PIC, GNT, RHA, and isoRHA (at a final concentration of 10 μM in the 0.1%DMSO) or 0.1% DMSO (the control) was added to the DMEM/F-12 medium containing 10% FBS and refreshed every three days. On day 3 and day 6, each of the culture plates was photographed using an inverted microscope (ECLIPSE TS100, Nikon Instruments Inc., Tokyo, Japan). The culture medium was removed and washed with PBS, and the cultured cells in each well were fixed with 4% paraformaldehyde. To measure cell viability and quantify the neurite outgrowths of the treated SH-SY5Y in a 96-well plate, the neurite outgrowth staining kit (a two-color fluorescence assay kit) was used, following a previous report or the protocol in the manufacturer’s manual (publication number: MAN0007224), which included a cell membrane-stained fluorescent dye (orange-red fluorescence), a cell viability indicator (green fluorescence), and a reagent for background masking. The fluorescence ratios of Ex555nm/Em565nm and Ex495nm/Em515nm were determined for the neurite outgrowths and the cell viabilities, respectively. The value for the control was recognized as 100%, and each treatment was expressed relative to the control.

[7] = read-out: Cmax of metabolite; after intravenous PIC 90 μmole/kg (21.98 mg/kg), SD rats; cited from earlier work
[8] = DPPH radical scavenging activity; conditions: 120 μM DPPH in methanol, 37 °C, 20 min
Experimental: DPPH radical scavenging activity was assayed following a previous report, with some modifications. […] DMSO was used instead of a sample solution in the blank group. […] The scavenging activity of the DPPH radical (%) was calculated with the following equation: (△A515blank − △A515sample) ÷ △A515blank × 100%. The IC50 of the DPPH radical scavenging activity of PIC and its analogs or that of Trolox was calculated from each linear equation by three test concentrations and their radical scavenging activities.

[9] = target: T1, recombinant human AChE (Homo sapiens, UniProt P22303); experiment: AChE inhibitory activity in vitro (acetylthiocholine/DTNB); type: biochemical; conditions: calculated from 100, 200, 500 μM; read-out: IC50 of the anti-AChE activity
T1 construct: purchased R&D Systems Inc. (Minneapolis, MN, USA)
Experimental: Commercially synthesized acetylthiocholine iodide was hydrolyzed using AChE to release thiocholine, which was coupled with DTNB to generate the yellowish 5-thio-2-nitrobenzoate for in vitro AChE activity assays. For the AChE inhibitory activity assay, each analog was dissolved in the DMSO, and final concentrations of 100, 200, and 500 μM were used for comparisons. An equal volume of DMSO instead of the sample solution was used in the blank group and expressed as 100% AChE activity. […] AChE inhibition (%) was calculated as follows: [(A405blank − A405sample)/(A405blank)] × 100%.

[10] = target: T2, Aβ peptide (1–42) (Homo sapiens, UniProt P05067); experiment: biochemical; conditions: 10 μM Aβ working solution, ThT, 37 °C, 24 h; read-out: IC50 of the anti-Aβ peptide (1–42) aggregation
T2 construct: The Aβ peptide (1–42) was synthesized and purchased from Kelowna International Scientific Inc; purchased Kelowna International Scientific Inc. (New Taipei, Taiwan); host or cells: chemical synthesis
Experimental: To prepare the 10 μM Aβ peptide working solution, commercial Aβ peptide was first weighted and dissolved in HFIP to 1 mM. Next, the solvent was evaporated in a hood and then re-dissolved using 100 μL of 60 mM NaOH. It was then diluted to 10 μM working solutions with 50 mM phosphate buffer (pH 7.4, containing 150 mM sodium chloride and 1 mM EDTA), following previous reports. […] DMSO instead of the sample solution was used as the control. The 50 mM phosphate buffer was used instead of the Aβ working solution as the sample blank. […] The IC50 of the inhibition against the Aβ aggregation of PIC and its analogs was calculated from each linear equation using three test concentrations and their inhibition capacities.

[11] = system: early Alzheimer’s; conditions: 18-month phase-3 trial; cited from earlier work

T2 sequence (P05067 672-713): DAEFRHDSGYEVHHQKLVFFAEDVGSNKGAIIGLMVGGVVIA
T1 sequence (P22303 32-614): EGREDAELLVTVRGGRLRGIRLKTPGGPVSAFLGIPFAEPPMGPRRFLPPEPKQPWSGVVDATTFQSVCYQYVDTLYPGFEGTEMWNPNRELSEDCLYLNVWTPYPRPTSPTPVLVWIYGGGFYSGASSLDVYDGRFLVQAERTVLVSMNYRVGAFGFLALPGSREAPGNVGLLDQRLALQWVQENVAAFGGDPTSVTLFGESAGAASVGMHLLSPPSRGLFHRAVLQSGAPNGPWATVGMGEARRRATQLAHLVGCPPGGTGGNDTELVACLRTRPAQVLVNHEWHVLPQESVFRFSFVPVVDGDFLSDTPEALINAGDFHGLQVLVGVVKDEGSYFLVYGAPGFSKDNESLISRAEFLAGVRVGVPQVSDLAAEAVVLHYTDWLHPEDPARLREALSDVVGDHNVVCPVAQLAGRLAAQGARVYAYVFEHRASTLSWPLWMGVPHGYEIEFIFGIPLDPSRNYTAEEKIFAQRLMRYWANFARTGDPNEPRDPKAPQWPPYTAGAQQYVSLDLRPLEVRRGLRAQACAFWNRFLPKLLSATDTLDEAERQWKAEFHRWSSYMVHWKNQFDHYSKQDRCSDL

## Oc1ccc([C@H]2c3c(O)cc(O)cc3[C@H]3c4c(cc(O)cc4[C@@H]2c2cc(/C=C/c4cc(O)cc5c4[C@H](c4cc(O)cc(O)c4)[C@@H](c4ccc(O)cc4)O5)ccc2O)O[C@@H]3c2ccc(O)cc2)cc1 [vitisin A]
[1]
  learning and memory functions via the passive avoidance test: improved learning and memory functions

## Oc1ccc([C@H]2c3c(O)cc(O)cc3[C@H]3c4c(cc(O)cc4[C@@H]2O)O[C@@H]3c2ccc(O)cc2)cc1 [ampelopsin A]
[2]
  learning behavior, passive avoidance test and novel object recognition: clear restoration of learning behavior

## OC[C@H]1O[C@@H](Oc2cc(/C=C/c3cc(O)cc(O)c3)ccc2O)[C@H](O)[C@@H](O)[C@@H]1O [piceatannol-3′-O-β-D-glucopyranoside]
[3]
  crossing of the BBB: reported to cross the BBB

## COc1cc(C=Cc2cc(O)cc(O)c2)ccc1O [isoRHA, 3,5,4′-trihydroxy-3′-methoxystilbene]
[4]; 3-day or 6-day treatment, orange-red fluorescence, vs control
  stimulation of neurite outgrowths: stimulate neurite outgrowths; also recorded: showed stimulated activities toward neurite outgrowths; also recorded: showed stimulatory activity in neurite outgrowths
[4]; calculated
  total neurite lengths in living SH-SY5Y cells, fold of the control: 1.375 fold
[5]
  viability at 10 µM: 80%
[6]
  neuroprotection: cell viability against Aβ peptide (25–35)-induced cell deaths: elevated cell viabilities
[7]
  Cmax: 5.08 ± 0.31 µM
[8]
  IC50: 72.9 µM
[9]
  IC50: 322 µM
[10]
  IC50: 1.94 µM

B1: lecanemab (antibody, chains of the INN, looked up, V domains shown)
VH: EVQLVESGGGLVQPGGSLRLSCSASGFTFSSFGMHWVRQAPGKGLEWVAYISSGSSTIYYGDTVKGRFTISRDNAKNSLFLQMSSLRAEDTAVYYCAREGGYYYGRSYYTMDYWGQGTTVTVSS
VL: DVVMTQSPLSLPVTPGAPASISCRSSQSIVHSNGNTYLEWYLQKPGQSPKLLIYKVSNRFSGVPDRFSGSGSGTDFTLRISRVEAEDVGIYYCFQGSHVPPTFGPGTKLEIK
[11]
  less decline in measures of cognition and function as compared to a placebo: 25%
